In patent US20230393140A1, “BINDING ASSAYS INVOLVING A PLURALITY OF SYNTHETIC COMPOUNDS, TARGETS, AND COUNTER TARGETS” (SRI International, priority 2020, published 2023):
Numbered stars: 1 amine (or outer) side, 2 acyl side, 3 side chain; on linkers, the order of the positions; unused ones are H or OH. Square brackets hold non-standard residues; d marks the D form. Peptide text beside a SMILES is read from it. * marks the point of attachment. 5FAM = O=C1OC2(c3ccc(O)cc3Oc3cc(O)ccc32)c2ccc(C(=O)*)cc21; NHCH2C6H4(4-CH2CONH2) = NC(=O)Cc1ccc(CN*)cc1; X1 = O=C(Cc1ccc(CN[*:1])cc1)[*:2]

How the values were obtained:
ASGPR = target: T1, ASGPR (Homo sapiens, UniProt P07306); experiment: MST binding affinity of resynthesized NNP hits to ASGPR; conditions: read-out: KD of ASGPR hits by MST
T1 construct: purchased R&D Systems, Inc. 4394-AS
T1 sequence (P07306 1-291): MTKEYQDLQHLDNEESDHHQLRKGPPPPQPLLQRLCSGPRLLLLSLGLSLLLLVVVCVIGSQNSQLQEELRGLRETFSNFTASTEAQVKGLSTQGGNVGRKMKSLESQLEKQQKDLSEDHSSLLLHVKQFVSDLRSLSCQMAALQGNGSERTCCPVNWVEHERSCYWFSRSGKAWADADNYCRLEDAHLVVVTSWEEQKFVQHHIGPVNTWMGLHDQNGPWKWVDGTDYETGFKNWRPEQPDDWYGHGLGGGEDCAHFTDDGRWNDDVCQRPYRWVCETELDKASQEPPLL
Summary of the method: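 Microscale thermophoresis at room temperature, triplicate, 15, 30 and 45 min incubations; targets labeled with RED-NHS 647 dye. Buffers (all 20 mM HEPES pH 7.4 unless noted): IL-6 150 mM KCl, 10 mM MgCl2, 0.1% Pluronic F-127; IL-6R 150 mM NaCl, 10 mM MgCl2, 0.05% Tween-20; TNFα 10 mM HEPES, 150 mM NaCl, 10 mM MgCl2, 0.05% Polysorbate-20; ASGPR adds 2 mM CaCl2, 0.05% Pluronic F-127, 1 mM DTT.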

[1] = tested on: HepG2 cells (high ASGPR expressing); experiment: ASGPR uptake assay, flow cytometry, HepG2; format: cell-based, human
Description: The HEK293T (human embryonic kidney cells) and human hepatoma HepG2 cells were grown according to the protocols provided by the American Type Culture Collection (ATCC). When cells reached cell were seeded at ˜1.5×10^5 cells/well in 24-well culture plate for the uptake assay. After at least 16 hours of culture to allow cell attach and equilibrate, the compound treatment was set up for the uptake assay.
The fluorescein-labeled NNPs or fluorescein-labeled N-acetylgalactosamine (GalNAc) recognizing ASGRPR were added to wells at indicated concentrations and incubated for 2 hours. Two plates were prepared for each treatment condition, one serving as 4 degrees C. no internalization control that was kept on ice during incubation, while the second plate was incubated at 37 degrees C. to allow for energy dependent internalization. Following the incubation period, all plates were placed on ice and washed three times with ice-cold PBS/3% BSA/2 mM EDTA and then lifted with trypsin. Cells were transferred to a 96-well round bottom plates in FACS buffer. Cells were then analyzed by flow cytometry using LSR-HJ with HTS sampler (BD Biosciences, San Jose, CA, USA). Data (mean fluorescence intensities) and further analyzed using Flowjo software (BD Biosciences, San Jose, CA, USA). The internalized fraction was expressed as the difference between the corresponding 4 degrees C. and 37 degrees C. MFIs as previously described.

[2] = tested on: ASGPR-mediated uptake in HepG2 cells; experiment: Competitive uptake assay with asialofetuin in HepG2; format: cell-based, human; conditions: test compound 0.3 μM
Description: For the competitive uptake assay with the natural ligand of ASGPR (asialofetuin), cells were pre-incubated with 20 μM and 60 μM asialofetuin on ice or at 37 degrees C. for 1.5 hours, followed by the treatment with compounds for additional 2 hours before flow cytometric analysis as described above. The reduction of the uptake under asialofetuin competition was expressed by the percentage against the same treatment condition without asialofetuin.

HepG2 cells = experiment: Confocal imaging of HepG2 cell uptake; format: cell-based, human
Description: More particularly, FIG. 11B illustrates cell uptake of GalNAc (positive control), two NNP hits (ASGPR-9-4 and ASGPR-9-6) and a non-hit NNP (KRAS-1-14, negative control) in HepG2 (high ASGPR expressing) verses HEK293 (low ASGPR expressing) cells lines. FIG. 11C illustrates competition uptake assay of GalNAc and two NNP hits (ASGPR-9-4 and ASGPR-9-6) in HepG2 cells after preincubation with different concentrations of asialofetuin (a naturally occurring serum protein ASGPR ligand). Decrease in cell uptake with increasing concentrations of asialofetuin indicates blocking of ASGPR-mediated uptake. FIG. 11D illustrates example confocal images 1113, 1115, 1117, 1119 of HepG2 cell uptake (scale: x20 for the images 1113, 1115, 1117 and x40 for the image 1119). FL=fluorescein label; Cell nucleus staining with DAPI (blue). No uptake with the blank sample (DMSO) is seen at 4 degrees C.

**Q.** Which Kd (ASGPR) does the source give for `CC(C)C[C@H](NC(=O)[C@@H](CCCNC(=N)N)NC(=O)[C@@H](CCCCN)NC(=O)[C@@H](CCC(=O)O)NC(=O)[C@@H](Cc1ccccc1)NC(=O)Cc1ccc(CNC(=O)[C@H](Cc2ccccc2)NC(=O)[C@@H](CO)NC(=O)[C@@H](CCC(=O)O)NC(=O)[C@H]2CCCN2C(=O)[C@@H](CC(C)C)NC(=O)c2ccc3c(c2)C(=O)OC32c3ccc(O)cc3Oc3cc(O)ccc32)cc1)C(=O)NCc1ccc(CC(=O)NCC(=O)N2CCC[C@@H]2C(=O)N[C@H](CCCNC(=N)N)C(=O)N[C@H](CO)C(=O)N[C@@H](Cc2ccccc2)C(=O)NCc2ccc(CC(=O)N[C@H](Cc3ccc(O)cc3)C(=O)N[C@@H](C(=O)N3CCC[C@@H]3C(=O)N[C@H](CCCNC(=N)N)C(=O)N[C@@H](C)C(=O)NCc3ccc(CC(=O)N[C@H](CCCNC(=N)N)C(=O)N[C@H](Cc4ccccc4)C(=O)N4CCC[C@@H]4C(=O)N[C@@H](C(=O)NCC(=O)NCc4ccc(CC(=O)N[C@H](CC(C)C)C(=O)N5CCC[C@@H]5C(=O)N[C@H](CCCNC(=N)N)C(=O)N[C@@H](C(=O)NCC(=O)NCc5ccc(CC(N)=O)cc5)[C@H](C)O)cc4)C(C)C)cc3)[C@H](C)O)cc2)cc1` [ASGPR-9-6] (5FAM-[dL][dP][dE][dS]F[X1][dF][dE][dK][dR]L[X1]G[dP][dR][dS]F[X1][dY][dT][dP][dR]A[X1][dR][dF][dP][dV]G[X1][dL][dP][dR][dT]G-{NHCH2C6H4(4-CH2CONH2)}) here?
**A.** The Kd was 0.034 µM.

**Q.** What about the “Internalization compared with positive control GalNAc” value ([1]; HepG2, flow cytometry) of the same compound?
**A.** The value was “significantly higher than uptake of the positive control GalNAc”.

**Q.** What about the “Internalization (cell uptake) in HepG2” value ([1]; fluorescein-labeled compounds, flow cytometry, 2 hours) of the same compound?
**A.** Its value is “significantly higher in HepG2 cells compared to in HEK293 cells”.

**Q.** What about the “Cellular uptake with 60 μM asialofetuin” value ([2]; 60 μM asialofetuin (200-fold excess)) of the same compound?
**A.** Its value is “mostly abolished”.

**Q.** And the “Cellular uptake after pre-incubation with asialofetuin” value ([2]; asialofetuin 20 μM and 60 μM)?
**A.** The value was “decreased with increasing concentrations of asialofetuin”.

**Q.** And the “HepG2 cell uptake, confocal images, 4 degrees C.” value (HepG2 cells; 4 degrees C.)?
**A.** The value was “not at 4 °C”.

**Q.** What about the “HepG2 cell uptake, confocal images, 37 degrees C.” value (HepG2 cells; 37 degrees C.) of the same compound?
**A.** The value was “intracellular uptake is observed”.
